# Measured values taken from ChEMBL document CHEMBL4257492, “Discovery of 2-aminoimidazole and 2-amino imidazolyl-thiazoles as non-xanthine human adenosine A3 receptor antagonists: SAR and molecular modeling studies” (Medchemcomm, 2018).
# pKi: −log10 of the molar value. Activity calls are given as the source filed them. No cut-off for these calls is given here.
# Assays:
# [1] = molecular target: T1, Adenosine receptor A3 (Homo sapiens) (UniProt P0DMS8); experiment: (§1) Displacement of [3H]HEMADO from recombinant human A3 receptor expressed in CHO cell membranes
# T1 sequence (whole entry): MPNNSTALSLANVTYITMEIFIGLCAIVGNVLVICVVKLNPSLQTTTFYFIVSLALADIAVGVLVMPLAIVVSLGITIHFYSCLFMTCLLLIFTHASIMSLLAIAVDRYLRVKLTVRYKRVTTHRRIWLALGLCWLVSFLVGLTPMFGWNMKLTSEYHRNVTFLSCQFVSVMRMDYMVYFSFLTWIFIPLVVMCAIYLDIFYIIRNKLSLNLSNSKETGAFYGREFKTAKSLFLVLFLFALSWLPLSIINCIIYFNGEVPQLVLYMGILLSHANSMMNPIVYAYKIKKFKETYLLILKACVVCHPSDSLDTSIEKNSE
# [2] = molecular target: T2, Adenosine receptor A1 (Homo sapiens) (UniProt P30542); experiment: (§2) Displacement of [3H]CCPA from recombinant human A1 receptor expressed in CHO cell membranes
# T2 sequence (whole entry): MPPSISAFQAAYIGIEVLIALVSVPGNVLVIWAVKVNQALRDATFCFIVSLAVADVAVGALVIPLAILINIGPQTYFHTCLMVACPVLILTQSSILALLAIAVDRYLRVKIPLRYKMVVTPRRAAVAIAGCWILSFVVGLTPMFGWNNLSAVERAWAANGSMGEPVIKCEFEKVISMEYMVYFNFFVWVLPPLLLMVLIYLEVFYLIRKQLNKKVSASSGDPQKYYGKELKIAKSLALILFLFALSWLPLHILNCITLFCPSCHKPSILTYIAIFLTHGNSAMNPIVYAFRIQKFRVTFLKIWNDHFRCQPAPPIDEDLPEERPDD
# [3] = molecular target: T3, Adenosine receptor A2b (Homo sapiens) (UniProt P29275); experiment: Antagonist activity at recombinant human A2B receptor expressed in CHO cell membranes assessed as inhibition of NECA-stimulated adenylyl cyclase activity up to 30 uM; format: functional, cell-based
# T3 sequence (whole entry): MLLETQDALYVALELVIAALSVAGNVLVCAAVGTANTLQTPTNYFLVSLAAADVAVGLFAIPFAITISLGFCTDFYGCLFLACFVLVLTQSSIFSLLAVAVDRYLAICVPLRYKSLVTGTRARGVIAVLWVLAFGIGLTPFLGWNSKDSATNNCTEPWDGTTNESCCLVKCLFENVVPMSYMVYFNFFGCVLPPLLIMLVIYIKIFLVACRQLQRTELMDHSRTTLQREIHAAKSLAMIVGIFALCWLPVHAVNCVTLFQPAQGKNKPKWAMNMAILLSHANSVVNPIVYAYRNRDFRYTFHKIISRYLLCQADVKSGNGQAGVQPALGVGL
# Adenosine receptor A3 = molecular target: T4, Adenosine receptor A3 (Homo sapiens, UniProt P0DMS8); experiment: as §1
# T4 sequence (P0DMS8 whole entry): T1 sequence (whole entry)
# Adenosine receptor A2b = molecular target: T5, Adenosine receptor A2b (Homo sapiens, UniProt P29275); experiment: Antagonist activity at recombinant human A2B receptor expressed in CHO cell membranes assessed as inhibition of NECA-stimulated adenylyl cyclase activity; format: functional, cell-based
# T5 sequence (P29275 whole entry): T3 sequence (whole entry)
# Adenosine receptor A1 = molecular target: T6, Adenosine receptor A1 (Homo sapiens, UniProt P30542); experiment: as §2
# T6 sequence (P30542 whole entry): T2 sequence (whole entry)
# Adenosine receptor A2a = Adenosine receptor A2a (Homo sapiens, UniProt P29274); experiment: Displacement of [3H]NECA from recombinant human A2A receptor expressed in CHO cell membranes
# Homo sapiens [4] = species: Homo sapiens; experiment: Selectivity ratio of Ki for displacement of [3H]NECA from recombinant human A2A receptor expressed in CHO cell membranes to displacement of [3H]HEMADO from recombinant human A3 receptor expressed in CHO cell membranes
# Homo sapiens [5] = species: Homo sapiens; experiment: Selectivity ratio of Ki for displacement of [3H]CCPA from recombinant human A1 receptor expressed in CHO cell membranes to displacement of [3H]HEMADO from recombinant human A3 receptor expressed in CHO cell membranes
# Adenosine receptor A2a, sequence (P29274 whole entry): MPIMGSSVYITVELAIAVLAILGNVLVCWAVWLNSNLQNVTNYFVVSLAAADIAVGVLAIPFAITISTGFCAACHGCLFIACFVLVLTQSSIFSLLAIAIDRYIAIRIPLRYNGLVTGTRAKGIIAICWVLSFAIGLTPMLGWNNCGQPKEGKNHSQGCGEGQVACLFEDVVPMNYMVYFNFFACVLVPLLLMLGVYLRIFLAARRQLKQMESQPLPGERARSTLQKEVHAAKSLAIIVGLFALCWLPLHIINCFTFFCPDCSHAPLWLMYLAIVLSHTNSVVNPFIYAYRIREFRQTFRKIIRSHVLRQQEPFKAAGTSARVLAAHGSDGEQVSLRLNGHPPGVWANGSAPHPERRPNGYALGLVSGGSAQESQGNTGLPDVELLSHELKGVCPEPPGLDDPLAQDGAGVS
inhibition [1],inhibition [2],inhibition [3],pKi (Adenosine receptor A3),pKi (Adenosine receptor A2b),pKi (Adenosine receptor A1),pKi (Adenosine receptor A2a),SMILES,Ratio Ki (Homo sapiens [4]),Ratio Ki (Homo sapiens [5])
inactive,inactive,inactive,,,,,Cc1ccc(C(=O)c2cnc(N)n2-c2ccc(F)cc2)cc1,,
,inactive,inactive,,,,,Nc1ncc(C(=O)c2ccncc2)n1-c1ccc(F)cc1,,
,,,5.31,< 5.00,4.71,4.78,CN(C)c1nc(NC(=O)c2ccccc2)sc1C(=O)c1cnc(N)n1-c1ccc(C(F)(F)F)cc1,,
Active,inactive,inactive,,,,,Nc1ncc(C(=O)c2ccc(Cl)cc2)n1-c1ccc(F)c(Cl)c1,,
,inactive,inactive,,,,,Nc1ncc(C(=O)c2ccncc2)n1-c1ccc(C(F)(F)F)cc1,,
Active,inactive,inactive,,,,,Nc1ncc(C(=O)c2ccncc2)n1-c1ccc(Cl)cc1,,
inactive,inactive,inactive,,,,,Nc1ncc(C(=O)c2ccc(Cl)cc2)n1-c1ccc(F)cc1,,
Active,inactive,inactive,,,,,Cc1ccc(C(=O)c2cnc(N)n2-c2cccc(Cl)c2)cc1,,
Active,inactive,inactive,,,,,Nc1ncc(C(=O)c2ccc(Cl)cc2)n1-c1ccc(C(F)(F)F)cc1,,
inactive,inactive,inactive,,,,,COc1ccc(C(=O)c2cnc(N)n2-c2ccc(F)cc2)cc1,,
Active,inactive,inactive,,,,,CS(=O)(=O)c1ccc(C(=O)c2cnc(N)n2-c2ccccc2)cc1,,
inactive,inactive,inactive,,,,,Cc1ccc(C(=O)c2cnc(N)n2-c2ccc(Cl)cc2)cc1,,

# Further lines, the compound ahead of its results:
SMILES,inhibition [1],inhibition [2],inhibition [3],pKi (Adenosine receptor A3),pKi (Adenosine receptor A2b),pKi (Adenosine receptor A1),pKi (Adenosine receptor A2a),Ratio Ki (Homo sapiens [4]),Ratio Ki (Homo sapiens [5])
Cc1ccc(-n2c(C(=O)c3sc(N4CCOCC4)nc3-c3ccccc3)cnc2N)cc1,,,,4.75,< 5.00,< 4.00,4.47,,
COc1ccc(-n2c(C(=O)c3sc(N4CCOCC4)nc3-c3ccccc3)cnc2N)cc1,,,,4.89,< 5.00,< 4.00,< 4.00,,
Cc1nc(Nc2ccccc2)sc1C(=O)c1cnc(N)n1-c1ccc(F)cc1,,,,6.72,< 5.00,4.41,5.09,40,200
Cc1nc(Nc2ccccc2)sc1C(=O)c1cnc(N)n1-c1ccc(Cl)cc1,,,,6.10,< 5.00,4.47,4.95,,
COc1ccc(-n2c(C(=O)c3sc(Nc4ccccc4)nc3-c3ccccc3)cnc2N)cc1,,,,6.49,< 5.00,5.44,5.05,,
Cc1nc(Nc2ccc(Cl)cc2)sc1C(=O)c1cnc(N)n1-c1ccc(F)cc1,,,,6.06,< 5.00,4.70,4.89,,
COc1ccc(-n2c(C(=O)c3sc(Nc4ccc(Cl)cc4)nc3C)cnc2N)cc1,,,,5.80,< 5.00,4.48,4.99,,
COc1ccc(-n2c(C(=O)c3sc(Nc4ccccc4)nc3C)cnc2N)cc1,,,,6.24,< 5.00,4.31,4.87,20 to 40,20 to 40
Cc1ccc(Nc2nc(C)c(C(=O)c3cnc(N)n3-c3ccc(F)cc3)s2)cc1,,,,6.31,< 5.00,4.43,4.91,20 to 40,20 to 40
Nc1ncc(C(=O)c2sc(Nc3ccccc3)nc2-c2ccccc2)n1-c1ccc(F)cc1,,,,6.52,< 5.00,5.17,5.13,20 to 40,20 to 40
Cc1ccc(C(=O)c2cnc(N)n2-c2ccccc2Cl)cc1,Active,inactive,inactive,,,,,,
CN(C)c1nc(NC(=O)c2ccccc2)sc1C(=O)c1cnc(N)n1-c1ccc(Cl)cc1,,,,5.36,< 5.00,4.60,4.93,,
